From ChEMBL document CHEMBL3046208, “Natural and synthetic podolactones with potential use as natural herbicide models” (2000)
Calls of active or inactive are those of the source. The rule behind the calls is not given here.

Tests used:
Type in all cases: functional
Allium cepa [1] = assay: Stimulation of root length of Allium cepa (onion) at 0.1 mM after 5 days relative to untreated control
Hordeum vulgare [2] = assay: Inhibition of germination of Hordeum vulgare (barley) at 0.1 mM after 5 days relative to untreated control; conditions: 120 h
Triticum aestivum [3] = assay: Inhibition of shoot length of Triticum aestivum (wheat) at 0.1 mM after 5 days relative to untreated control
Lepidium sativum [4] = assay: Inhibition of shoot length of Lepidium sativum at 0.1 mM after 5 days relative to untreated control; conditions: 120 h
Solanum lycopersicum [5] = assay: Stimulation of germination of Solanum lycopersicum (tomato) at 0.1 mM after 5 days relative to untreated control
Hordeum vulgare [6] = assay: Stimulation of shoot length of Hordeum vulgare (barley) at 0.1 mM after 5 days relative to untreated control
Lepidium sativum [7] = assay: Stimulation of root length of Lepidium sativum at 0.1 mM after 5 days relative to untreated control
Allium cepa [8] = assay: Inhibition of root length of Allium cepa (onion) at 0.1 mM after 5 days relative to untreated control
Triticum aestivum [9] = assay: Stimulation of shoot length of Triticum aestivum (wheat) at 0.1 mM after 5 days relative to untreated control
Triticum aestivum [10] = assay: Inhibition of root length of Triticum aestivum (wheat) at 0.1 mM after 5 days relative to untreated control
Solanum lycopersicum [11] = assay: Stimulation of root length of Solanum lycopersicum (tomato) at 0.1 mM after 5 days relative to untreated control
Lactuca sativa [12] = assay: Stimulation of shoot length of Lactuca sativa cv. Nigra (lettuce) at 0.1 mM after 5 days relative to untreated control
Lepidium sativum [13] = assay: Inhibition of germination of Lepidium sativum at 0.1 mM after 5 days relative to untreated control
Triticum aestivum [14] = assay: Stimulation of root length of Triticum aestivum (wheat) at 0.1 mM after 5 days relative to untreated control
Solanum lycopersicum [15] = assay: Stimulation of root length of Solanum lycopersicum (tomato) at 10 nM after 5 days relative to untreated control
Solanum lycopersicum [16] = assay: Inhibition of shoot length of Solanum lycopersicum (tomato) at 0.1 mM after 5 days relative to untreated control; conditions: 120 h
Allium cepa [17] = assay: Inhibition of germination of Allium cepa (onion) at 0.1 mM after 5 days relative to untreated control
Triticum aestivum [18] = assay: Stimulation of germination of Triticum aestivum (wheat) at 0.1 mM after 5 days relative to untreated control
Lepidium sativum [19] = assay: Inhibition of root length of Lepidium sativum at 0.1 mM after 5 days relative to untreated control; conditions: 120 h
Lactuca sativa [20] = assay: Inhibition of root length of Lactuca sativa cv. Roman (lettuce) at 0.1 mM after 5 days relative to untreated control
Lepidium sativum [21] = assay: Stimulation of germination of Lepidium sativum at 0.1 mM after 5 days relative to untreated control
Solanum lycopersicum [22] = assay: Inhibition of germination of Solanum lycopersicum (tomato) at 0.1 mM after 5 days relative to untreated control
Lepidium sativum [23] = assay: Stimulation of shoot length of Lepidium sativum at 0.1 mM after 5 days relative to untreated control
Hordeum vulgare [24] = assay: Stimulation of root length of Hordeum vulgare (barley) at 0.1 mM after 5 days relative to untreated control
Hordeum vulgare [25] = assay: Inhibition of shoot length of Hordeum vulgare (barley) at 0.1 mM after 5 days relative to untreated control
Lactuca sativa [26] = assay: Inhibition of germination of Lactuca sativa cv. Nigra (lettuce) at 0.1 mM after 5 days relative to untreated control; conditions: 120 h
Allium cepa [27] = assay: Stimulation of shoot length of Allium cepa (onion) at 0.1 mM after 5 days relative to untreated control
Allium cepa [28] = assay: Inhibition of shoot length of Allium cepa (onion) at 0.1 mM after 5 days relative to untreated control; conditions: 120 h
Lactuca sativa [29] = assay: Inhibition of shoot length of Lactuca sativa cv. Roman (lettuce) at 0.1 mM after 5 days relative to untreated control; conditions: 120 h
Lactuca sativa [30] = assay: Stimulation of germination of Lactuca sativa cv. Nigra (lettuce) at 0.1 mM after 5 days relative to untreated control
Lactuca sativa [31] = assay: Inhibition of root length of Lactuca sativa cv. Nigra (lettuce) at 0.1 mM after 5 days relative to untreated control; conditions: 120 h
Solanum lycopersicum [32] = assay: Inhibition of root length of Solanum lycopersicum (tomato) at 0.1 mM after 5 days relative to untreated control; conditions: 120 h
Lactuca sativa [33] = assay: Stimulation of root length of Lactuca sativa cv. Nigra (lettuce) at 0.1 mM after 5 days relative to untreated control
Hordeum vulgare [34] = assay: Stimulation of germination of Hordeum vulgare (barley) at 0.1 mM after 5 days relative to untreated control
Allium cepa [35] = assay: Stimulation of germination of Allium cepa (onion) at 0.1 mM after 5 days relative to untreated control
Lactuca sativa [36] = assay: Inhibition of germination of Lactuca sativa cv. Roman (lettuce) at 0.1 mM after 5 days relative to untreated control
Hordeum vulgare [37] = assay: Inhibition of root length of Hordeum vulgare (barley) at 0.1 mM after 5 days relative to untreated control; conditions: 120 h
Lactuca sativa [38] = assay: Stimulation of germination of Lactuca sativa cv. Roman (lettuce) at 0.1 mM after 5 days relative to untreated control
Allium cepa [39] = assay: Inhibition of germination of Allium cepa (onion) at 1 uM after 5 days relative to untreated control; conditions: 120 h
Lactuca sativa [40] = assay: Stimulation of root length of Lactuca sativa cv. Roman (lettuce) at 0.1 mM after 5 days relative to untreated control
Triticum aestivum [41] = assay: Inhibition of germination of Triticum aestivum (wheat) at 0.1 mM after 5 days relative to untreated control
Lactuca sativa [42] = assay: Inhibition of shoot length of Lactuca sativa cv. Nigra (lettuce) at 0.1 mM after 5 days relative to untreated control; conditions: 120 h
Lactuca sativa [43] = assay: Stimulation of shoot length of Lactuca sativa cv. Roman (lettuce) at 0.1 mM after 5 days relative to untreated control
Solanum lycopersicum [44] = assay: Stimulation of shoot length of Solanum lycopersicum (tomato) at 0.1 mM after 5 days relative to untreated control
Hordeum vulgare [45] = assay: Inhibition of germination of Hordeum vulgare (barley) at 10 nM after 5 days relative to untreated control; conditions: 120 h

## COC(=O)[C@@]1(C)CCC[C@@]2(C)[C@H]1CC[C@H]1COC(=O)C[C@@H]12
Allium cepa [1]
  Activity: <20%
Hordeum vulgare [2]
  inhibition at 100 µM: > 40%
Triticum aestivum [3]
  inhibition: inactive
Lepidium sativum [4]
  inhibition at 100 µM: 20%
Solanum lycopersicum [5]
  Activity: inactive
Hordeum vulgare [6]
  Activity: inactive
Lepidium sativum [7]
  Activity: <20%
Allium cepa [8]; 120 h
  inhibition at 100 µM: < 20%
Triticum aestivum [9]
  Activity: inactive
Triticum aestivum [10]; 120 h
  inhibition at 100 µM: < 20%
Solanum lycopersicum [11]
  Activity: >40%
Lactuca sativa [12]
  Activity: 20%
Lepidium sativum [13]
  inhibition: inactive
Triticum aestivum [14]
  Activity: <20%
Solanum lycopersicum [15]
  Activity: 60%
Solanum lycopersicum [16]
  inhibition at 100 µM: 20%
Allium cepa [17]; 120 h
  inhibition at 100 µM: 20%
Triticum aestivum [18]
  Activity: inactive
Lepidium sativum [19]
  inhibition at 100 µM: < 20%
Lactuca sativa [20]; 120 h
  inhibition at 100 µM: < 20%
Lepidium sativum [21]
  Activity: inactive
Solanum lycopersicum [22]
  inhibition: inactive
Lepidium sativum [23]
  Activity: 20%
Hordeum vulgare [24]
  Activity: >40%
Hordeum vulgare [25]
  inhibition: inactive
Lactuca sativa [26]
  inhibition at 100 µM: 20%
Allium cepa [27]
  Activity: 20%
Allium cepa [28]
  inhibition at 100 µM: 20%
Lactuca sativa [29]
  inhibition at 100 µM: 20%
Lactuca sativa [30]
  Activity: 20%
Lactuca sativa [31]
  inhibition at 100 µM: < 20%
Solanum lycopersicum [32]
  inhibition at 100 µM: > 40%
Lactuca sativa [33]
  Activity: <20%
Hordeum vulgare [34]
  Activity: >40%
Allium cepa [35]
  Activity: 20%
Lactuca sativa [36]
  inhibition: inactive
Hordeum vulgare [37]
  inhibition at 100 µM: > 40%
Lactuca sativa [38]
  Activity: inactive
Allium cepa [39]
  inhibition at 1 µM: -46%
Lactuca sativa [40]
  Activity: <20%
Triticum aestivum [41]
  inhibition: inactive
Lactuca sativa [42]
  inhibition at 100 µM: 20%
Lactuca sativa [43]
  Activity: 20%
Solanum lycopersicum [44]
  Activity: 20%

## C[C@]1(C(=O)O)CCC[C@]2(C)C3=CC(=O)OC[C@]34O[C@@H]4C[C@@H]12
Allium cepa [1]
  Activity: inactive
Hordeum vulgare [2]
  inhibition at 100 µM: > 40%
Triticum aestivum [3]
  inhibition: inactive
Lepidium sativum [4]
  inhibition at 100 µM: 20%
Solanum lycopersicum [5]
  Activity: inactive
Hordeum vulgare [6]
  Activity: inactive
Lepidium sativum [7]
  Activity: <20%
Allium cepa [8]
  inhibition: inactive
Triticum aestivum [9]
  Activity: inactive
Triticum aestivum [10]
  inhibition: inactive
Solanum lycopersicum [11]
  Activity: 20%
Lactuca sativa [12]
  Activity: <20%
Lepidium sativum [13]
  inhibition: inactive
Triticum aestivum [14]
  Activity: inactive
Solanum lycopersicum [16]
  inhibition at 100 µM: < 20%
Allium cepa [17]
  inhibition: inactive
Triticum aestivum [18]
  Activity: inactive
Lepidium sativum [19]
  inhibition at 100 µM: < 20%
Lactuca sativa [20]
  inhibition: inactive
Lepidium sativum [21]
  Activity: inactive
Solanum lycopersicum [22]
  inhibition: inactive
Lepidium sativum [23]
  Activity: 20%
Hordeum vulgare [24]
  Activity: 20%
Hordeum vulgare [25]
  inhibition: inactive
Hordeum vulgare [45]
  inhibition at 0.01 µM: -72%
Lactuca sativa [26]
  inhibition at 100 µM: < 20%
Allium cepa [27]
  Activity: <20%
Allium cepa [28]
  inhibition at 100 µM: < 20%
Lactuca sativa [29]
  inhibition at 100 µM: < 20%
Lactuca sativa [30]
  Activity: <20%
Lactuca sativa [31]
  inhibition at 100 µM: < 20%
Solanum lycopersicum [32]
  inhibition at 100 µM: 20%
Lactuca sativa [33]
  Activity: <20%
Hordeum vulgare [34]
  Activity: >40%
Allium cepa [35]
  Activity: inactive
Lactuca sativa [36]; 120 h
  inhibition at 100 µM: < 20%
Hordeum vulgare [37]
  inhibition at 100 µM: 20%
Lactuca sativa [38]
  Activity: <20%
Lactuca sativa [40]
  Activity: inactive
Triticum aestivum [41]
  inhibition: inactive
Lactuca sativa [42]
  inhibition at 100 µM: < 20%
Lactuca sativa [43]
  Activity: <20%
Solanum lycopersicum [44]
  Activity: <20%
